This is an account of results in patent US11136311B2, “Heteroaromatic derivatives as NIK inhibitors” (Janssen Pharmaceutica NV, priority 2016, dated 2021).

In assay [1] the test system is P-IKKα levels in L363 cells. Briefly: Effect of compounds on P-IKKα levels in L363 (NIK translocated multiple myeloma) cells. The note with it: averaged values, read-out: Inhibition of pIKKα_L-363 (IC50 (nM)). In kind it is cell-based, human. On the procedure: Effect of compounds on P-IKKα levels in L363 (NIK translocated multiple myeloma) cells
All compounds tested were dissolved in DMSO and further dilutions were made in culture medium. Final DMSO concentration was 1% (v/v) in cell assays. The human L363 cells (ATCC) were cultured in RPMI 1640 medium supplemented with GlutaMax and 10% fetal calf serum (PAA). Cells were routinely maintained at densities of 0.2×10^6 cells per ml-1×10^6 cells per ml at 37° C. in a humidified 5% CO2 atmosphere. Cells were passaged twice a week splitting back to obtain the low density. Cells were seeded in 96 well plates (Nunc 167008) at 2×10^6 per ml media in a volume of 75 μl per well plus 25 μl 1 μg/ml recombinant human B-cell activating factor (BAFF/BLyS/TNFSF13B). Seeded cells were incubated at 37° C. in a humidified 5% CO2 atmosphere for 24 hr. Drugs and/or solvents were added (20 μl) to a final volume of 120 μl. Following 2 hr treatment plates were removed from the incubator and cell lysis was achieved by the addition of 30 μl 5× lysis buffer followed by shaking on a plate shaker at 4° C. for 10 min. At the end of this incubation lysed cells were centrifuged at 800×g for 20 min at 4° C. and the lysate was assessed for P-IKKα levels by sandwich immuno-assay carried out in anti-rabbit antibody coated Mesoscale plates. Within an experiment, the results for each treatment were the mean of 2 replicate wells. For initial screening purposes, compounds were tested using an 8 point dilution curve (serial 1:3 dilutions). For each experiment, controls (containing MG132 and BAFF but no test drug) and a blank incubation (containing MG132 and BAFF and 10 μM ADS125117, a test concentration known to give full inhibition) were run in parallel. The blank incubation value was subtracted from all control and sample values. To determine the IC50 a sigmoidal curve was fitted to the plot of % inhibition of control P-IKKα levels versus Log10 compound concentration.

In assay [2] the target is recombinant human NF-kappaB-inducing kinase (NIK/MAP3K14) (Homo sapiens (Human), UniProt Q99558). Briefly: Inhibition of auto-phosphorylation of recombinant human NIK/MAP3K14 activity (AlphaScreen). The note with it: averaged values over all measurements on all batches. In kind it is biochemical. On the procedure:
Inhibition of auto-phosphorylation of recombinant human NF-kappaB-inducing kinase (NIK/MAP3K14) activity (AlphaScreen®)
NIK/MAP3K14 auto-phosphorylation activity was measured using the AlphaScreen® (αscreen) format (Perkin Elmer). All compounds tested were dissolved in dimethyl sulfoxide (DMSO) and further dilutions were made in assay buffer. Final DMSO concentration was 1% (v/v) in assays. Assay buffer was 50 mM Tris pH 7.5 containing 1 mM EGTA (ethylene glycol tetraacetic acid), 1 mM DTT (dithiothreitol), 0.1 mM Na3VO4, 5 mM MgCl2, 0.01% Tween® 20. Assays were carried out in 384 well Alphaplates (Perkin Elmer). Incubations consisted of compound, 25 microM Adenosine-5′-triphosphate (ATP), and 0.2 nM NIK/MAP3K14. Incubations were initiated by addition of GST-tagged NIK/MAP3K14 enzyme, carried out for 1 h at 25° C. and terminated by addition of stop buffer containing anti-phospho-IKK Ser176/180 antibody. Protein A Acceptor and Glutathione-Donor beads were added before reading using an EnVision® Multilabel Plate Reader (Perkin Elmer). Signal obtained in the wells containing blank samples was subtracted from all other wells and IC50's were determined by fitting a sigmoidal curve to % inhibition of control versus Log10 compound concentration.

A further assay concerns JJN-3 cells. Briefly: Antiproliferative activity on JJN-3 (NIK translocated) multiple myeloma cells (CellTiter-Glo). In kind it is cell-based, human. The note with it: Homo sapiens, JJN-3, 96 h, JJN-3 (NIK translocated) cells, 96 hr; averaged values; read-out: JJN-3 Proliferation inhibition (IC50 (nM)). The method, then: (§1) Determination of antiproliferative activity on JJN-3 (NIK translocated) and KMS12-BM (NIK WT) multiple myeloma cells
(§2) All compounds tested were dissolved in DMSO and further dilutions were made in culture medium. Final DMSO concentration was 0.3% (v/v) in cell proliferation assays. Viability was assessed using CellTiter-Glo cell viability assay kit (Promega). The human JJN-3 and KMS12-BM cells (DSMZ) were cultured in RPMI 1640 medium supplemented with 2 mM L-glutamine, and 10% fetal calf serum (PAA). Cells were routinely kept as suspension cells at 37° C. in a humidified 5% CO2 atmosphere. Cells were passaged at a seeding density of 0.2×10^6/ml twice a week. Cells were seeded in black tissue culture treated 96-well plates (Perkin Elmer). Densities used for plating ranged from 15000 (JJN3) to 20000 (KMS12BM) cells per well in a total volume of 135 μl medium. Drugs and/or solvents were added (15 μl) to a final volume of 150 μl. Following 96 hr of treatment, plates were removed from the incubator and allowed to equilibrate to room temperature for approx 10 min. 75 μl CellTiter-Glo reagent was added to each well that was then covered (Perkin Elmer Topseal) and shaken on plate shaker for 10 min. Luminescence was measured on a HTS Topcount (Perkin Elmer). Within an experiment, the results for each treatment were the mean of 2 replicate wells. For initial screening purposes, compounds were tested using a 9 point dilution curve (serial 1:3 dilutions). For each experiment, controls (containing no drug) and a blank incubation (containing cells read at the time of compound addition) were run in parallel. The blank value was subtracted from all control and sample values. For each sample, the mean value for cell growth (in relative light units) was expressed as a percentage of the mean value for cell growth of the control.
In general terms: Cellular ATP, detected with luciferase, serves as a proxy for viable cell number.

Another assay has as its system KMS12-BM cells. Briefly: Antiproliferative activity on KMS12-BM (NIK WT) multiple myeloma cells (CellTiter-Glo). Format: cell-based, human. The note with it: Homo sapiens, KMS-12-BM, 96 h, KMS12-BM (NIK WT) cells, 96 hr; averaged values; read-out: KMS-12 Proliferation inhibition (IC50 (nM)). On the procedure:
as §1, §2

The mark [3] stands for this setting: Homo sapiens, L-363, L363 cells.

Molecules are shown by their SMILES. Like-named read-outs stand apart in the source and are kept apart here.

Sequence of recombinant human NF-kappaB-inducing kinase (NIK/MAP3K14) (Q99558 whole entry): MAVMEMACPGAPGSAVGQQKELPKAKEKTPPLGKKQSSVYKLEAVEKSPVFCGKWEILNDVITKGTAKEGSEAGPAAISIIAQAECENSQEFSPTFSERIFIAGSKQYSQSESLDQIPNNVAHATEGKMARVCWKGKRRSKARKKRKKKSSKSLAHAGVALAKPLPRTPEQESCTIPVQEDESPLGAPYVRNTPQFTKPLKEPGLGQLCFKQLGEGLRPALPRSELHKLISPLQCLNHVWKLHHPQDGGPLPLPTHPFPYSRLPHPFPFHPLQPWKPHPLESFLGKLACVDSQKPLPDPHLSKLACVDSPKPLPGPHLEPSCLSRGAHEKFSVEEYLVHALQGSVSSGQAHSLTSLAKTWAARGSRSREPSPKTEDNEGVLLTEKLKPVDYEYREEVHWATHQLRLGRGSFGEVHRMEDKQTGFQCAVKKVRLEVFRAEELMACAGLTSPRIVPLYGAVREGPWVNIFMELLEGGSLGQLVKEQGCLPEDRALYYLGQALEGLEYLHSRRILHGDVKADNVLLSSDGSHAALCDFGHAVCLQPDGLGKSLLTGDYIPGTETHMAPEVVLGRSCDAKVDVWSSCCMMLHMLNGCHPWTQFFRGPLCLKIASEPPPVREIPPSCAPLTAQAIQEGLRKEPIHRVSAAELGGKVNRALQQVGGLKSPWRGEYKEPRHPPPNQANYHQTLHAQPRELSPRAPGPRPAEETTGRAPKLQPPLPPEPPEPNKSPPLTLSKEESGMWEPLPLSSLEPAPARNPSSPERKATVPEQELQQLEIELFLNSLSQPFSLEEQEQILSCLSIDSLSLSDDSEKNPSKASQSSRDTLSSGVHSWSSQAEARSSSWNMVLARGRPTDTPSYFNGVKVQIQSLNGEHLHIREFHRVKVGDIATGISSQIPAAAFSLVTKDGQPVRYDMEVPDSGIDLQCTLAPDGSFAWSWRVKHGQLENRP

Turning to `CC(C)n1nc(C(=O)N(C)C2CC2)cc1Nc1nccc(-c2cc(C#N)c3c(c2)[C@@](C)(CO)CN3)n1` [Compound 211], the IC50 in assay [1] (setting [3]) is 204 nM; in assay [2] it was 14.8 nM.
The like results for `Cn1ncc(Nc2nccc(-c3cc(C#N)c4c(c3)[C@@](C)(CO)CN4)n2)c1C(=O)N1CCCC1` [Compound 191] were, in that order, 4470 nM and 107 nM.
With `Cc1cc(Nc2nccc(-c3cc(C#N)c4c(c3)[C@@](C)(CO)CN4)n2)n(CC2CCN(CC(=O)O)CC2)n1` [Compound 214], the IC50 in assay [1] (setting [3]) was 2630 nM; in assay [2], 18.6 nM.
Turning to `Cn1ccc(Nc2nccc(-c3cc(C#N)c4c(c3)[C@](C)(CN)CN4)n2)n1` [Compound 223], the IC50 stood at 269 nM in assay [1] (L363 cells) and 224 nM in assay [2].
For `Cc1cc(Nc2nccc(-c3cc(C#N)c4c(c3)[C@@](C)(CO)CN4)n2)n(CC2CCn3ccnc3C2)n1` (mixture of isomers) [Compound 202], the IC50 in assay [1] (setting [3]) is 1950 nM; in assay [2], 7.2 nM.
As to `CC(C)Oc1nn(CCN2CCOCC2)cc1Nc1nccc(-c2cc(C#N)c3c(c2)[C@@](C)(CO)CN3)n1` [Compound 207], the results for the IC50 in assay [1] (setting [3]) and in assay [2] were 93 nM and 15.5 nM, respectively.
In the case of `Cc1cc(Nc2nccc(-c3cc(C#N)c4c(c3)[C@@](C)(CO)CN4)n2)n(CC2CCN(C)C(=O)C2)n1` (mixture of isomers) [Compound 171], the IC50 came out at 1440 nM in assay [1] (setting [3]) and 6.2 nM in assay [2].
For `CNC(=O)c1cc(Nc2nccc(-c3cc(C#N)c4c(c3)[C@@](C)(CO)CN4)n2)n(CC(C)C)n1` [Compound 219], the IC50 was determined as 100 nM in assay [1] (setting [3]), 9.5 nM in assay [2] and 214 nM in the assay with JJN-3 cells.
On to `CNC(=O)c1c(Nc2nccc(-c3cc(C#N)c4c(c3)[C@@](C)(CO)CN4)n2)cnn1C` [Compound 190], for which the values for the IC50 in assay [1] (setting [3]) and in assay [2] were 110 nM and 11.7 nM, respectively.
With `Cn1ncc(Nc2nccc(-c3cc(C#N)c4c(c3)[C@@](C)(CO)CN4)n2)c1OC1COC1` [Compound 193], the IC50 in assay [1] (setting [3]) was found to be 91 nM; in assay [2], 25.1 nM.
As to `CN(C)C(=O)Cn1nc(Cl)cc1Nc1nccc(-c2cc(C#N)c3c(c2)[C@@](C)(CO)CN3)n1` [Compound 116], the IC50 in assay [1] (setting [3]) is 269 nM; in assay [2], 9.3 nM.
Taken in the same sequence, the figures for `CN1CCN(Cc2c(Nc3nccc(-c4cc(C#N)c5c(c4)[C@@](C)(CO)CN5)n3)cnn2C)CC1` [Compound 209] were 141 nM and 28.2 nM.
Consider `Cc1nn(C)cc1Nc1nccc(-c2cc(C#N)c3c(c2)C(C)(CO)CN3)n1` (stereo not drawn) [Compound 7], for which the IC50 in assay [1] (setting [3]) was 2 nM; with KMS12-BM cells, approximately 1740 nM; with JJN-3 cells it was 112 nM.
Taken in the same sequence, the figures for `COCCCn1nc(C)cc1Nc1nccc(-c2cc(C#N)c3c(c2)[C@@](C)(CO)CN3)n1` [Compound 49] were 11 nM, 2090 nM and 134 nM.
Turning to `COCCCn1nccc1Nc1nccc(-c2cc(C#N)c3c(c2)[C@@](C)(CO)CN3)n1` [Compound 46], the IC50 is 2400 nM in the assay on KMS12-BM cells, 6.6 nM in assay [2] and 158 nM with JJN-3 cells.
With `Cc1cc(Nc2nccc(-c3cc(C#N)c4c(c3)[C@@](C)(CO)CN4)n2)n(CC(C)C)n1` [Compound 55], the IC50 was approximately 2040 nM in the assay with KMS12-BM cells, 4.4 nM in assay [2] and 59 nM with JJN-3 cells.
On to `CN1CCOCC1c1cc(Nc2nccc(-c3cc(C#N)c4c(c3)[C@@](C)(CO)CN4)n2)nn1C` (mixture of isomers) [Compound 215], for which the IC50 worked out at 3490 nM in assay [1] (setting [3]) and 168 nM in assay [2].
In the case of `Cn1ccc(Nc2ncc(F)c(-c3cc(C#N)c4c(c3)C(C)(CO)CN4)n2)n1` (stereo not drawn) [Compound 143], the values for the IC50 (in the assay on KMS12-BM cells; in assay [2]; in the assay with JJN-3 cells) were 204 nM, 1.3 nM and approximately 81 nM, respectively.
`Cc1c(Nc2nccc(-c3cc(C#N)c4c(c3)C(C)(CO)CN4)n2)cnn1C` (stereo not drawn) [Compound 36]: the figures for the IC50 (in the assay with KMS12-BM cells; in assay [2]; in the assay on JJN-3 cells) were 7590 nM, 2.6 nM and 174 nM, respectively.
For the compound `Cn1nc(Nc2nccc(-c3cc(C#N)c4c(c3)C(C)(CO)CN4)n2)cc1C1CC1` (stereo not drawn) [Compound 29], the IC50 in the assay on KMS12-BM cells was 1440 nM; in assay [2] it was 4.4 nM; in the assay with JJN-3 cells, approximately 603 nM.
As for `CN1CCC(n2ccc(Nc3nccc(-c4cc(C#N)c5c(c4)[C@@](C)(CO)CN5)n3)n2)CC1` [Compound 37], the results for the IC50 (in the assay with KMS12-BM cells; in assay [2]; in the assay on JJN-3 cells) were 182 nM, 2 nM and 162 nM, respectively.
As to `COCCn1nc(C2CCOCC2)cc1Nc1nccc(-c2cc(C#N)c3c(c2)[C@@](C)(CO)CN3)n1` [Compound 66], the IC50 with KMS12-BM cells was more than 10000 nM; in assay [2] it was 13 nM; in the assay with JJN-3 cells it was 324 nM.
For `Cc1cc(Nc2nccc(-c3cc(C#N)c4c(c3)[C@@](C)(CO)CN4)n2)n(CC(=O)N(C)C)n1` [Compound 206], the results for the IC50 in assay [1] (setting [3]) and in assay [2] were 31 nM and 2.9 nM, respectively.
Take `Cn1ccc(Nc2nccc(-c3cc(C#N)c4c(c3)[C@](C)(CO)CN4)n2)n1` [Compound 34]: the IC50 in the assay on KMS12-BM cells was approximately 10000 nM; in assay [2], 10 nM; in the assay on JJN-3 cells it was 1180 nM.
As to `C[C@]1(CO)CNc2c(C#N)cc(-c3ccnc(Nc4cn(CC(F)F)nc4C(=O)N4CCCC4)n3)cc21` [Compound 189], the IC50 in assay [1] (setting [3]) was found to be 51 nM; in assay [2] it was 17 nM.
As for `Cn1ccc(Nc2nccc(-c3cc(C#N)c4c(c3)[C@@](C)(CN)CN4)n2)n1` [Compound 222], the IC50 in assay [1] (setting [3]) worked out at 15 nM; in assay [2], 12 nM.
With `COCCn1nc(C)cc1Nc1nccc(-c2cc(C#N)c3c(c2)[C@](C)(CO)CN3)n1` [Compound 57], the IC50 was more than 10000 nM with KMS12-BM cells, 28 nM in assay [2] and approximately 933 nM with JJN-3 cells.
Regarding `Cn1cc(Nc2nccc(-c3cc(C#N)c4c(c3)[C@@](C)(CO)CN4)n2)c(CN2CCCC2=O)n1` [Compound 90], the IC50 was 5130 nM in the assay on KMS12-BM cells, 5.7 nM in assay [2] and 1550 nM in the assay on JJN-3 cells.
Regarding `Cn1cc(Nc2nccc(-c3cc(C#N)c4c(c3)C(C)(CO)CN4)n2)cn1` (stereo not drawn) [Compound 4], the IC50 in the assay with KMS12-BM cells is 162 nM; in assay [2], 2.5 nM; in the assay with JJN-3 cells it was approximately 55 nM.
